Results as given in ChEMBL document CHEMBL3638874, “Pyrrolopyrimidine compounds and their uses” (2015).

How the values were obtained:
[1] = biological target: Cyclin-dependent kinase 1 (Homo sapiens, UniProt P06493); assay: (§1) IMAP-FPT (Molecular Devices Trade Mark Technology) Endpoint Assay: A 384-well microtiter IMAP-FPT (Molecular Devices Trade Mark Technology) endpoint assay was used for CDK1/cyclin B kinase activity measurements. The same assay was used for IC50 determination of small molecule inhibitors. In general, the kinase reactions were carried out in 20 uL volumes in the reaction solution, which is composed of 2 uL compound (in 20% DMSO), 8 uL CDK1/cyclin B in the 1x Reaction Buffer (Molecular Devices, Cat. No. R8139), 10 uL substrate mixture of Tamra Histone-H1 peptide (Molecular Devices, Cat. No. R7384) and ATP (Amersham Pharmacia, Cat. No. 27-2056-01) in the 1x Reaction Buffer with 1 mM DTT freshly added. The final reaction mixture contains compound (inhibitor) with the concentration varying from 0.005-10 uM, 2% DMSO, 0.25 nM CDK1/cyclin B, 100 nM Tamra Histone-H1 peptide, and 20 uM ATP.All reactions were run at room temperature in black 384-well flat-bottom Costar plates (Corning, Cat. No. 3710) for 120 min then were quenched.
[2] = biological target: Cyclin-dependent kinase 2 (Homo sapiens, UniProt P24941); assay: as §1, with “Assay: The assay was run under the conditions identical to that for CDK1/cyclin B except 0.25 nM CDK1/cyclin B was replaced with 0.3 nM CDK2/cyclin A.” for “Assay:”, “μL” for “uL”, “1×” for “1x”, “μM,” for “uM,”, “μM ATP.” for “uM ATP.All reactions were run at room temperature in black 384-well flat-bottom Costar plates (Corning, Cat. No. 3710) for 120 min then were quenched.”

Cyclin-dependent kinase 1, sequence (P06493 whole entry): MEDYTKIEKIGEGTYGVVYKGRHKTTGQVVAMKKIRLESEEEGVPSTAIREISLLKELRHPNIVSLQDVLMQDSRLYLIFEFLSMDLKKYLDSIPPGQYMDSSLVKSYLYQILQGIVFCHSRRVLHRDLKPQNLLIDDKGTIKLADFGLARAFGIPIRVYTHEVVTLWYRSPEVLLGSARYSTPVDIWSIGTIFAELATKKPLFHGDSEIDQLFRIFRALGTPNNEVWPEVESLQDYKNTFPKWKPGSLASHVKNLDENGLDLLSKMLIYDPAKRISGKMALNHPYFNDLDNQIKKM

Work on `CN(C)C(=O)c1cc2cnc(Nc3ccc(N4CCNCC4=O)cn3)nc2n1C1CCCC1` yielded an IC50 [1] of over 15 µM and an IC50 [2] of over 15 µM.
